Data as given in patent EP0497314A1, “Use of azapirones in attention deficit hyperactivity disorder” (Bristol-Myers Squibb Company, priority 1991, dated 1992).
Marks after values point to notes of the source that are not given here.

What was measured:
rabbit cortex = test: Quantitative EEG, rabbit cortex, intravenous administration; format: in vivo, rabbits; conditions: rabbit, in vivo
Protocol: At least 2 weeks were allowed for recovery before beginning experimentation.
Groups of four animals each were individually restrained and connected to an EEG amplifier and frequency analyzer. The EEG of each animal was recorded on a separate channel. The instrumentation filtered each channel of EEG analog data into five distinct frequency bands: Δ=0.5-3.5 Hz, ϑ=3.5-7.0 Hz, α=7-13 Hz, β=13-25 Hz and γ=25-40 Hz. The EEG analyzer then integrated the filtered waveforms and sent pulses to an associated computer at a rate proportional to the electrical energy of each band. Thus, one computer print-out provided a cortical EEG profile for the entire group of four rabbits.
Data from a one-hour recording period were collected in four 15-minute periods, which provided additional information concerning both onset and time of peak effect of drug activity. However, in this report only the mean activity of the four data collection periods was considered since onset of drug activity was immediate and duration of action was at least one hour for all drugs studied. Drug-induced EEG changes were determined by comparing the post-treatment print-out to the pretreatment control in the same animal and statistical analysis was performed on change from control, in counts, using multiple Student-t paired-comparison tests with p≦0.05 (Table 1). However, for clarity data are also presented as percent change from control (Figures 1 and 2).
All drugs were administered intravenously in saline solution as their respective salts and all dosage calculations were based on the free base. Recording was started immediately after injection and animals were not used more often than once per week. Initial doses were reduced geometrically until a no-effect dose was determined for each drug. However, only the "no-effect" data and the data generated from the next higher dose are presented in this report since the shape of the EEG profile is not dose-related, as opposed to the magnitude of the response which is dose-related.

[1] = system: fronto-occipital cortex of the cat; test: Quantitative EEG, fronto-occipital cat cortex, subcutaneous administration; format: in vivo, cats; conditions: in vivo
Text: This unique combination of activity may render buspirone useful in the treatment of childhood hyperkinesis which has been reported to respond to both selected phenothiazine and stimulant drugs. • (b) Adult mongrel female cats weighing 2.5-4.0 kg were implanted with EEG recording electrodes. Recording sites were as follows: fronto-occipital cortex, basal amygdala and ventral hippocampus.
Animals were individually held in canvas feline restraining bags for EEG recording. The EEG of each brain area was recorded on a separate channel. The instrumentation filtered each channel of EEG and analog data into five distinct frequency bands: Δ=0.5-3.5 Hz, ϑ=3.5-7.0 Hz, α=7-13 Hz, β=13-25 Hz and γ=25-40 Hz. The EEG analyzer then integrated the filtered waveforms and sent pulses to an associated computer at a rate proportional to the electrical energy of each band. Data collecting procedures were essentially the same as reported in Example 1. However, groups of six animals each were used and all drugs were administered subcutaneously in saline solution as their respective salts, but all dosages were calculated as the free base. Recording was started 30 minutes after injection to insure adequate drug absorption for peak activity.
Drug-induced EEG changes were determined by comparing the post-treatment data to the pre-treatment control in the same animal. Statistical analysis was performed on change from control, in instrument counts, using multiple Student-t-paired-comparison test with P≦0.05 (Table 2). However, for clarity data are also presented as percent change from control (Figures 3, 4 and 5).
The data in Table 2 are drug-induced changes resulting from the minimum and higher doses of each compound required to elicit the EEG profile characteristic of that particular drug.

C[C@H](N)Cc1ccccc1 [Dextroamphetamine 1/2H2SO4, dextroamphetamine]
the minimum dose required to produce the EEG profile characteristic of that particular drug (rabbit cortex): 0.25‡ mg/kg, i.v.
the no-effect dose (rabbit cortex): 0.125† mg/kg, i.v.
relative potency by comparing minimal doses required to elicit EEG profiles (rabbit cortex; iv): approximately twice as potent as buspirone
group percent change in electrical energy from pre-drug control, Δ band (rabbit cortex; iv, 0.125 mg/kg): +4 ± 17 (+2) percent
group percent change in electrical energy from pre-drug control, α band (rabbit cortex; iv, 0.125 mg/kg): 0 ± 9 (0) percent
group percent change in electrical energy from pre-drug control, β band (rabbit cortex; iv, 0.125 mg/kg): +2 ± 6 (+1) percent
group percent change in electrical energy from pre-drug control, γ band (rabbit cortex; iv, 0.125 mg/kg): +1 ± 1 (+1) percent
group percent change in electrical energy from pre-drug control, θ band (rabbit cortex; iv, 0.125 mg/kg): -9 ± 6 (-5) percent
mean change ± S.E. in electrical energy from pre-drug control, Δ band (rabbit cortex; iv, 0.125 mg/kg): +4 ± 17 (+2) instrument counts
mean change ± S.E. in electrical energy from pre-drug control, α band (rabbit cortex; iv, 0.125 mg/kg): 0 ± 9 (0) instrument counts
mean change ± S.E. in electrical energy from pre-drug control, β band (rabbit cortex; iv, 0.125 mg/kg): +2 ± 6 (+1) instrument counts
mean change ± S.E. in electrical energy from pre-drug control, γ band (rabbit cortex; iv, 0.125 mg/kg): +1 ± 1 (+1) instrument counts
mean change ± S.E. in electrical energy from pre-drug control, θ band (rabbit cortex; iv, 0.125 mg/kg): -9 ± 6 (-5) instrument counts
group percent change in electrical energy from pre-drug control, α band (rabbit cortex; iv, 0.25 mg/kg): +27 ± 9 (-22) percent
group percent change in electrical energy from pre-drug control, β band (rabbit cortex; iv, 0.25 mg/kg): -21 ± 6 (-20) percent
group percent change in electrical energy from pre-drug control, γ band (rabbit cortex; iv, 0.25 mg/kg): -4 ± 1 (-5) percent
group percent change in electrical energy from pre-drug control, θ band (rabbit cortex; iv, 0.25 mg/kg): -35 ± 9 (-25) percent
mean change ± S.E. in electrical energy from pre-drug control, Δ band (rabbit cortex; iv, 0.25 mg/kg): -64 ± 19 (-33) instrument counts
mean change ± S.E. in electrical energy from pre-drug control, β band (rabbit cortex; iv, 0.25 mg/kg): -21 ± 6 (-20) instrument counts
mean change ± S.E. in electrical energy from pre-drug control, γ band (rabbit cortex; iv, 0.25 mg/kg): -4 ± 1 (-5) instrument counts
mean change ± S.E. in electrical energy from pre-drug control, θ band (rabbit cortex; iv, 0.25 mg/kg): -35 ± 9 (-25) instrument counts
the minimum dose required to produce the EEG profile characteristic of that particular drug [1]: 0.125‡ mg/kg, s.c.
the no-effect dose [1]: 0.0625† mg/kg, s.c.
relative potency by comparing minimal doses required to elicit EEG profiles ([1]; sc): approximately twice as potent as buspirone and methylphenidate
group percent change in electrical energy from pre-drug control, Δ band ([1]; sc, 0.0625 mg/kg): -18 ± 6 (-8) percent
group percent change in electrical energy from pre-drug control, α band ([1]; sc, 0.0625 mg/kg): -12 ± 8 (-8) percent
group percent change in electrical energy from pre-drug control, β band ([1]; sc, 0.0625 mg/kg): +1 ± 5 (+1) percent
group percent change in electrical energy from pre-drug control, γ band ([1]; sc, 0.0625 mg/kg): +2 ± 3 (+2) percent
group percent change in electrical energy from pre-drug control, θ band ([1]; sc, 0.0625 mg/kg): -15 ± 7 (-10) percent
mean change ± S.E. in electrical energy from pre-drug control, Δ band ([1]; sc, 0.0625 mg/kg): -18 ± 6 (-8) instrument counts
mean change ± S.E. in electrical energy from pre-drug control, α band ([1]; sc, 0.0625 mg/kg): -12 ± 8 (-8) instrument counts
mean change ± S.E. in electrical energy from pre-drug control, β band ([1]; sc, 0.0625 mg/kg): +1 ± 5 (+1) instrument counts
mean change ± S.E. in electrical energy from pre-drug control, γ band ([1]; sc, 0.0625 mg/kg): +2 ± 3 (+2) instrument counts
mean change ± S.E. in electrical energy from pre-drug control, θ band ([1]; sc, 0.0625 mg/kg): -15 ± 7 (-10) instrument counts
group percent change in electrical energy from pre-drug control, Δ band ([1]; sc, 0.125 mg/kg): -85 ± 21 (-35) percent
group percent change in electrical energy from pre-drug control, α band ([1]; sc, 0.125 mg/kg): -29 ± 9 (-26) percent
group percent change in electrical energy from pre-drug control, β band ([1]; sc, 0.125 mg/kg): -3 ± 4 (-3) percent
group percent change in electrical energy from pre-drug control, γ band ([1]; sc, 0.125 mg/kg): +8 ± 2 (+12) percent
group percent change in electrical energy from pre-drug control, θ band ([1]; sc, 0.125 mg/kg): -44 ± 8 (-33) percent
mean change ± S.E. in electrical energy from pre-drug control, Δ band ([1]; sc, 0.125 mg/kg): -85 ± 21 (-35) instrument counts
mean change ± S.E. in electrical energy from pre-drug control, α band ([1]; sc, 0.125 mg/kg): -29 ± 9 (-26) instrument counts
mean change ± S.E. in electrical energy from pre-drug control, β band ([1]; sc, 0.125 mg/kg): -3 ± 4 (-3) instrument counts
mean change ± S.E. in electrical energy from pre-drug control, γ band ([1]; sc, 0.125 mg/kg): +8 ± 2 (+12) instrument counts
mean change ± S.E. in electrical energy from pre-drug control, θ band ([1]; sc, 0.125 mg/kg): -44 ± 8 (-33) instrument counts
group percent change in electrical energy from pre-drug control, Δ band ([1]; sc, 0.5 mg/kg): -78 ± 32 (-33) percent
group percent change in electrical energy from pre-drug control, α band ([1]; sc, 0.5 mg/kg): -71 ± 11 (-51) percent
group percent change in electrical energy from pre-drug control, β band ([1]; sc, 0.5 mg/kg): -18 ± 9 (-15) percent
group percent change in electrical energy from pre-drug control, γ band ([1]; sc, 0.5 mg/kg): +18 ± 4 (+25) percent
group percent change in electrical energy from pre-drug control, θ band ([1]; sc, 0.5 mg/kg): -76 ± 13 (-51) percent
mean change ± S.E. in electrical energy from pre-drug control, Δ band ([1]; sc, 0.5 mg/kg): -78 ± 32 (-33) instrument counts
mean change ± S.E. in electrical energy from pre-drug control, α band ([1]; sc, 0.5 mg/kg): -71 ± 11 (-51) instrument counts
mean change ± S.E. in electrical energy from pre-drug control, β band ([1]; sc, 0.5 mg/kg): -18 ± 9 (-15) instrument counts
mean change ± S.E. in electrical energy from pre-drug control, γ band ([1]; sc, 0.5 mg/kg): +18 ± 4 (+25) instrument counts
mean change ± S.E. in electrical energy from pre-drug control, θ band ([1]; sc, 0.5 mg/kg): -76 ± 13 (-51) instrument counts
group percent change in electrical energy from pre-drug control, Δ band ([1]; sc, 4 mg/kg): +64 ± 27 (+29) percent
group percent change in electrical energy from pre-drug control, α band ([1]; sc, 4 mg/kg): -44 ± 13 (-35) percent
group percent change in electrical energy from pre-drug control, β band ([1]; sc, 4 mg/kg): -6 ± 9 (-5) percent
group percent change in electrical energy from pre-drug control, γ band ([1]; sc, 4 mg/kg): +50 ± 8 (+63) percent
group percent change in electrical energy from pre-drug control, θ band ([1]; sc, 4 mg/kg): -34 ± 13 (-24) percent
mean change ± S.E. in electrical energy from pre-drug control, Δ band ([1]; sc, 4 mg/kg): +64 ± 27 (+29) instrument counts
mean change ± S.E. in electrical energy from pre-drug control, α band ([1]; sc, 4 mg/kg): -44 ± 13 (-35) instrument counts
mean change ± S.E. in electrical energy from pre-drug control, β band ([1]; sc, 4 mg/kg): -6 ± 9 (-5) instrument counts
mean change ± S.E. in electrical energy from pre-drug control, γ band ([1]; sc, 4 mg/kg): +50 ± 8 (+63) instrument counts
mean change ± S.E. in electrical energy from pre-drug control, θ band ([1]; sc, 4 mg/kg): -34 ± 13 (-24) instrument counts
